In PubChem BioAssay (NCI):
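Dose response: 5 concentrations. Exposure: 48 h. Format: 96-well plates. Endpoint: linear interpolation; highest concentration if not reached. At the GI50, growth is halved. TGI: concentration producing complete growth inhibition.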

Assays:
Experiment in all cases: NCI tumour cell line growth inhibition, 48 h
[1] = system: 786-0 renal
[2] = system: A498 renal
[3] = system: A549 NSCLC
[4] = system: ACHN renal
[5] = system: BT-549 breast
[6] = system: CAKI-1 renal
[7] = system: CCRF-CEM leukemia
[8] = system: COLO 205 colon
[9] = system: DU-145 prostate
[10] = system: EKVX NSCLC
[11] = system: HCC-2998 colon
[12] = system: HCT-116 colon
[13] = system: HCT-15 colon
[14] = system: HL-60(TB) leukemia
[15] = system: HOP-62 NSCLC
[16] = system: HOP-92 NSCLC
[17] = system: HS 578T breast
[18] = system: HT29 colon
[19] = system: IGROV1 ovarian
[20] = system: K-562 leukemia
[21] = system: KM12 colon
[22] = system: LOX IMVI melanoma
[23] = system: M14 melanoma
[24] = system: MALME-3M melanoma
[25] = system: MCF7 breast
[26] = system: MDA-MB-231 breast
[27] = system: MDA-MB-435
[28] = system: MOLT-4 leukemia
[29] = system: NCI-H226 lung
[30] = system: NCI-H23 lung
[31] = system: NCI-H460 lung
[32] = system: NCI-H522 lung
[33] = system: NCI/ADR-RES ovarian
[34] = system: OVCAR-3 ovarian
[35] = system: OVCAR-4 ovarian
[36] = system: OVCAR-5 ovarian
[37] = system: OVCAR-8 ovarian
[38] = system: PC-3 prostate
[39] = system: RPMI-8226 leukemia
[40] = system: RXF 393 renal
[41] = system: SF-268 CNS
[42] = system: SF-295 CNS
[43] = system: SF-539 CNS
[44] = system: SK-MEL-2 melanoma
[45] = system: SK-MEL-28 melanoma
[46] = system: SK-MEL-5 melanoma
[47] = system: SK-OV-3 ovarian
[48] = system: SNB-19 CNS
[49] = system: SNB-75 CNS
[50] = system: SR leukemia
[51] = system: SW-620 colon
[52] = system: T-47D breast
[53] = system: TK-10 renal
[54] = system: U251 CNS
[55] = system: UACC-257 melanoma
[56] = system: UACC-62 melanoma
[57] = system: UO-31 renal

Structure (SMILES): C=C1C(=O)O[C@H]2[C@H]1CC/C(COC(=O)NCCc1ccc(OC)cc1)=C\CC[C@@]1(C)O[C@@H]21
- GI50 [1]: 1.76 µM
- TGI [1]: 4.22 µM
- GI50 [2]: 4.52 µM
- TGI [2]: 18.1 µM
- GI50 [3]: 13.2 µM
- TGI [3]: 28.4 µM
- GI50 [4]: 1.72 µM
- TGI [4]: 3.55 µM
- GI50 [5]: 2.12 µM
- TGI [5]: 6.41 µM
- GI50 [6]: 2.52 µM
- TGI [6]: 7.53 µM
- GI50 [7]: 1.98 µM
- TGI [7]: 7.74 µM
- GI50 [8]: 1.94 µM
- TGI [8]: 4.18 µM
- GI50 [9]: 1.92 µM
- TGI [9]: 5.16 µM
- GI50 [10]: 7.45 µM
- TGI [10]: 21.5 µM
- GI50 [11]: 2.48 µM
- TGI [11]: 5.63 µM
- GI50 [12]: 1.34 µM
- TGI [12]: 2.84 µM
- GI50 [13]: 1.74 µM
- TGI [13]: 4.01 µM
- GI50 [14]: 2.34 µM
- TGI [14]: 5.72 µM
- GI50 [15]: 12.2 µM
- TGI [15]: 27.1 µM
- GI50 [16]: 1.99 µM
- TGI [16]: 6.19 µM
- GI50 [17]: 13.8 µM
- TGI [17]: 62.9 µM
- GI50 [18]: 2.15 µM
- TGI [18]: 4.71 µM
- GI50 [19]: 2.61 µM
- TGI [19]: 7.32 µM
- GI50 [20]: 3.08 µM
- TGI [20]: 10.3 µM
- GI50 [21]: 8.36 µM
- TGI [21]: 24.4 µM
- GI50 [22]: 1.38 µM
- TGI [22]: 2.89 µM
- GI50 [23]: 1.98 µM
- TGI [23]: 4.78 µM
- GI50 [24]: 2.44 µM
- TGI [24]: 6.7 µM
- GI50 [25]: 1.89 µM
- TGI [25]: 4.79 µM
- GI50 [26]: 2.02 µM
- TGI [26]: 5.17 µM
- GI50 [27]: 3.53 µM
- TGI [27]: 11.8 µM
- GI50 [28]: 2.61 µM
- TGI [28]: 6.77 µM
- GI50 [29]: 4.11 µM
- TGI [29]: 16.4 µM
- GI50 [30]: 4.34 µM
- TGI [30]: 18.6 µM
- GI50 [31]: 12.2 µM
- TGI [31]: 35.2 µM
- GI50 [32]: 1.82 µM
- TGI [32]: 3.93 µM
- GI50 [33]: 10 µM
- TGI [33]: 32.6 µM
- GI50 [34]: 2.19 µM
- TGI [34]: 5.25 µM
- GI50 [35]: 3.41 µM
- TGI [35]: 13.6 µM
- GI50 [36]: 2.65 µM
- TGI [36]: 8.27 µM
- GI50 [37]: 2.77 µM
- TGI [37]: 7.7 µM
- GI50 [38]: 8.08 µM
- TGI [38]: 21.7 µM
- GI50 [39]: 2.85 µM
- TGI [39]: 7.59 µM
- GI50 [40]: 1.55 µM
- TGI [40]: 3.11 µM
- GI50 [41]: 10.6 µM
- TGI [41]: 23.3 µM
- GI50 [42]: 13.5 µM
- TGI [42]: 27.4 µM
- GI50 [43]: 1.79 µM
- TGI [43]: 4.21 µM
- GI50 [44]: 8.97 µM
- TGI [44]: 21.9 µM
- GI50 [45]: 1.99 µM
- TGI [45]: 4.39 µM
- GI50 [46]: 6.23 µM
- TGI [46]: 19.1 µM
- GI50 [47]: 23 µM
- TGI [47]: 65.8 µM
- GI50 [48]: 8.65 µM
- TGI [48]: 23.1 µM
- GI50 [49]: 4.09 µM
- TGI [49]: 16.6 µM
- GI50 [50]: 2.07 µM
- TGI [50]: 7.87 µM
- GI50 [51]: 2.51 µM
- TGI [51]: 6.97 µM
- GI50 [52]: 2.47 µM
- TGI [52]: 6.52 µM
- GI50 [53]: 2.73 µM
- TGI [53]: 7.62 µM
- GI50 [54]: 11.1 µM
- TGI [54]: 23.5 µM
- GI50 [55]: 2.49 µM
- TGI [55]: 6.85 µM
- GI50 [56]: 1.25 µM
- TGI [56]: 3.05 µM
- GI50 [57]: 1.76 µM
- TGI [57]: 3.26 µM
